As usually defined, the EC50 is the concentration giving half of the maximal effect.

Each structure is given as a SMILES string. Read-outs that look alike come from different tables or passages of the source. Some results are limits rather than exact numbers.

This is an account of results in publication PMC4648050, “Discovery of Inhibitors of Trypanosoma brucei by Phenotypic Screening of a Focused Protein Kinase Library” (Chemmedchem, 2015).

Test [1] has as its target NEK6 (Homo sapiens, UniProt Q9HC98). The experiment in a line: Kinase panel: NEK6. The test is classed as biochemical, human/mammalian. The conditions noted are these: compound at 10 μM, read-out: % of activity respect of the control. Here is the method: (§1) The DDU kinase-focused compound set contains lead-like scaffolds that are designed to target protein kinases; they have kinase hinge binding motifs. Four of the 1H-imidazopyrazinones were screened against a human/mammalian kinase panel at the University of Dundee (http://www.kinase-screen.mrc.ac.uk) at a concentration of 10 μM. At the time of testing the panel contained 79 mammalian kinases selected to provide a broad coverage of the mammalian kinome (∼500 kinases in the human genome).[3] None of the compounds were active against any of the kinases at 10 μM.

Test [2] has as its target CK1 (Homo sapiens, UniProt P48730). In words: Kinase panel: CK1. Format: biochemical, human/mammalian. The conditions noted are these: compound at 10 μM, read-out: % of activity respect of the control. The procedure:
as §1

Test [3] concerns the target CK2 (Homo sapiens, UniProt P68400). In words: Kinase panel: CK2. Format: biochemical, human/mammalian. The conditions noted are these: compound at 10 μM, read-out: % of activity respect of the control. Here is the method:
as §1

In test [4] the target is CHK2 (Homo sapiens, UniProt O96017). In words: Kinase panel: CHK2. Format: biochemical, human/mammalian. Particulars: compound at 10 μM, read-out: % of activity respect of the control. The procedure: as §1
The target in test [5] is Lck (Homo sapiens, UniProt P06239). The experiment in a line: Kinase panel: Lck. The test is classed as biochemical, human/mammalian. Particulars: compound at 10 μM, read-out: % of activity respect of the control. Here is the method: as §1
For test [6], the target named is T1, EPH-B3 (Homo sapiens, UniProt P54753).
T1 sequence (P54753 34-998): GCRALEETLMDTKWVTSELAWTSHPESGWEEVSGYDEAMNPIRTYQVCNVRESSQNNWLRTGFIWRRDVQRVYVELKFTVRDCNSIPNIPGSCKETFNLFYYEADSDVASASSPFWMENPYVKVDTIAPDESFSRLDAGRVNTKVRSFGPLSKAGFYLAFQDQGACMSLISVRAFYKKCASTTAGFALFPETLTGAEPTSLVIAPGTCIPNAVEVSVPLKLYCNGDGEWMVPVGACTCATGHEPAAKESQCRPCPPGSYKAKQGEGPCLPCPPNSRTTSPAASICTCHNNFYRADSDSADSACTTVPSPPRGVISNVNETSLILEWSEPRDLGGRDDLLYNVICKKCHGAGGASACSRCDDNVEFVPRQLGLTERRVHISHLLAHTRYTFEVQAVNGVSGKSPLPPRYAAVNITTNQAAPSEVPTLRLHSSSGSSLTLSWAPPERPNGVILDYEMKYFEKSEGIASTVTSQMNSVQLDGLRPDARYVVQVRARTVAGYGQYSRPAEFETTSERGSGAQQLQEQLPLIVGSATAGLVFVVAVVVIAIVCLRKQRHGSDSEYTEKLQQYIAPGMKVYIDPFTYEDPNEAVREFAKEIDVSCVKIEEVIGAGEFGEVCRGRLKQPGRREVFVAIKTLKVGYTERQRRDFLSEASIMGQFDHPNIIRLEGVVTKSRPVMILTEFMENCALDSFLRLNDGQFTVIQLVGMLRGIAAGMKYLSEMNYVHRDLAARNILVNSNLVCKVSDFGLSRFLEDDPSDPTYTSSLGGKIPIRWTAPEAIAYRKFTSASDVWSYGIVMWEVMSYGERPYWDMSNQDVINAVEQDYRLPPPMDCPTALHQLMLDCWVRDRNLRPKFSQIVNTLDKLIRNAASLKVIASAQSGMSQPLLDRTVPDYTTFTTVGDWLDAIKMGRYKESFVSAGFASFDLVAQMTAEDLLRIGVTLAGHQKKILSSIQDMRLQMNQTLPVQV
The experiment in a line: Kinase panel: EPH-B3. The conditions noted are these: compound at 10 μM, read-out: % of activity respect of the control. Format: biochemical, human/mammalian. Here is the method: as §1

The subject of test [7] is T. b. brucei. The experiment in a line: Trypanosome proliferation assay. The test is classed as cell-based, Trypanosoma brucei brucei. The conditions noted are these: geometric mean of two or more determinations, standard cell viability (resazurin) assay, read-out: EC50 T. b. brucei. The procedure, abridged:
(§2)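 Bloodstream-stage T. brucei or MRC5 cells (MRC5 in MEM + 10% FBS), 2×10^3 per well, exposed to compounds ([…] to 0.5 nM) for 69 h at 37 °C, 5% CO2. Viability read by fluorescence after a further 4 h with 50 μM resazurin.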
In general terms: Resazurin is reduced to fluorescent resorufin, in cell work by metabolically active cells.

The subject of test [8] is MRC5 cells (human lung fibroblasts). The experiment in a line: MRC5 proliferation assay. Format: cell-based. The conditions noted are these: geometric mean of two or more determinations. The procedure, abridged: as §2
Test [9] concerns the target IGF-1R (Homo sapiens, UniProt P08069). The experiment in a line: Kinase panel: IGF-1R. The conditions noted are these: compound at 10 μM, read-out: % of activity respect of the control. Format: biochemical, human/mammalian. The procedure: as §1
For test [10], the target named is T2, p38s MAPK (Homo sapiens, UniProt O15264).
T2 sequence (O15264 1-365): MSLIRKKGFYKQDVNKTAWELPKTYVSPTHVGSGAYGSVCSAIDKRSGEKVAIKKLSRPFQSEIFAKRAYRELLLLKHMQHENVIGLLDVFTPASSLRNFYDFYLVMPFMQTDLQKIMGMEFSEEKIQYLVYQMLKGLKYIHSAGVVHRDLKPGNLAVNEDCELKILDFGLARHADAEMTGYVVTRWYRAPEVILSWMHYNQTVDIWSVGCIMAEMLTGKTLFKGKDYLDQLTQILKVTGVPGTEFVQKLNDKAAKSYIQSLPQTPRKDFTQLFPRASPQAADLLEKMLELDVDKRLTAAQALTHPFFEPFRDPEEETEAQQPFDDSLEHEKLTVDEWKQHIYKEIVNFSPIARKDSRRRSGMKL
In words: Kinase panel: p38s MAPK. Particulars: compound at 10 μM, read-out: % of activity respect of the control. The test is classed as biochemical, human/mammalian. The procedure:
as §1

Test [11] deals with ERK1 (Homo sapiens, UniProt P27361). In words: Kinase panel: ERK1. Format: biochemical, human/mammalian. The conditions noted are these: compound at 10 μM, read-out: % of activity respect of the control. The procedure: as §1
The target of test [12] is T3, CHK1 (Homo sapiens, UniProt O14757).
T3 sequence (O14757 1-476): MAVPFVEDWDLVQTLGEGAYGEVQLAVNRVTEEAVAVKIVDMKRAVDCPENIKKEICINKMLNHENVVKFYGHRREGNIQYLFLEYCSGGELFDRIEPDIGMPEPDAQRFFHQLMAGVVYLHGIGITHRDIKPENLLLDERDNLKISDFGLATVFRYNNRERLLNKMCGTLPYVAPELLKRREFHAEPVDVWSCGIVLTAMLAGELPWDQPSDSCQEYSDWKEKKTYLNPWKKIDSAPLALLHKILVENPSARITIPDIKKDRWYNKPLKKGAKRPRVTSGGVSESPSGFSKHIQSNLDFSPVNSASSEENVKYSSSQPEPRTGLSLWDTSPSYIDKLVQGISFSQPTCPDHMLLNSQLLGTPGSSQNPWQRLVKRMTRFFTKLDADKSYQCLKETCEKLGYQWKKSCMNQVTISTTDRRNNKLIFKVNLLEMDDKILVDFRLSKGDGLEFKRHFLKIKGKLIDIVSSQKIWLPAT
The experiment in a line: Kinase panel: CHK1. Format: biochemical, human/mammalian. Particulars: compound at 10 μM, read-out: % of activity respect of the control. Here is the method:
as §1

Lck, sequence (P06239 whole entry): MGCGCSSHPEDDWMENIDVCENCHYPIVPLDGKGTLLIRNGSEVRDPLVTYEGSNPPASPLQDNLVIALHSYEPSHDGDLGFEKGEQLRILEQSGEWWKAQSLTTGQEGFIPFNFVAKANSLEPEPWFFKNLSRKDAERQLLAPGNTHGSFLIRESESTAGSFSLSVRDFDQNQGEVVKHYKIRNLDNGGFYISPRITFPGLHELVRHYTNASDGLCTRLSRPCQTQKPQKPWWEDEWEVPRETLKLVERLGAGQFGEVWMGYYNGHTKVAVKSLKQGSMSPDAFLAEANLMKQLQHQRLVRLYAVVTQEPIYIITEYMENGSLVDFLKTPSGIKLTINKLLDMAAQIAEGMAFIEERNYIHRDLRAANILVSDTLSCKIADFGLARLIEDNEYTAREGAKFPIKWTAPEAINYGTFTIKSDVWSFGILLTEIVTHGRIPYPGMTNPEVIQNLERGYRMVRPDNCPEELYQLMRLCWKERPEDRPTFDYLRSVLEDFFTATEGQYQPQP
CK1, sequence (P48730 whole entry): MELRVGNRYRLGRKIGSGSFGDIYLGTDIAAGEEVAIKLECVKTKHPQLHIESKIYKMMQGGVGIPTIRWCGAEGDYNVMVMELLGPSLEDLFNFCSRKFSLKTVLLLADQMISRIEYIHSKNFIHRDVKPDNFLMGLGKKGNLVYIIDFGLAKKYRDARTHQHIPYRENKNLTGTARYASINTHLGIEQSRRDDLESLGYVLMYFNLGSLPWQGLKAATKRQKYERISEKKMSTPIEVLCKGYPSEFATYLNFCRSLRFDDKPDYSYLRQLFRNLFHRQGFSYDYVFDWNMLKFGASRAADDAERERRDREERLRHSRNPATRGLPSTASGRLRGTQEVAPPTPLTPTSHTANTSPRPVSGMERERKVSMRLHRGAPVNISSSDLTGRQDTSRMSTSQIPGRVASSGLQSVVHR
IGF-1R, sequence (P08069 31-1367): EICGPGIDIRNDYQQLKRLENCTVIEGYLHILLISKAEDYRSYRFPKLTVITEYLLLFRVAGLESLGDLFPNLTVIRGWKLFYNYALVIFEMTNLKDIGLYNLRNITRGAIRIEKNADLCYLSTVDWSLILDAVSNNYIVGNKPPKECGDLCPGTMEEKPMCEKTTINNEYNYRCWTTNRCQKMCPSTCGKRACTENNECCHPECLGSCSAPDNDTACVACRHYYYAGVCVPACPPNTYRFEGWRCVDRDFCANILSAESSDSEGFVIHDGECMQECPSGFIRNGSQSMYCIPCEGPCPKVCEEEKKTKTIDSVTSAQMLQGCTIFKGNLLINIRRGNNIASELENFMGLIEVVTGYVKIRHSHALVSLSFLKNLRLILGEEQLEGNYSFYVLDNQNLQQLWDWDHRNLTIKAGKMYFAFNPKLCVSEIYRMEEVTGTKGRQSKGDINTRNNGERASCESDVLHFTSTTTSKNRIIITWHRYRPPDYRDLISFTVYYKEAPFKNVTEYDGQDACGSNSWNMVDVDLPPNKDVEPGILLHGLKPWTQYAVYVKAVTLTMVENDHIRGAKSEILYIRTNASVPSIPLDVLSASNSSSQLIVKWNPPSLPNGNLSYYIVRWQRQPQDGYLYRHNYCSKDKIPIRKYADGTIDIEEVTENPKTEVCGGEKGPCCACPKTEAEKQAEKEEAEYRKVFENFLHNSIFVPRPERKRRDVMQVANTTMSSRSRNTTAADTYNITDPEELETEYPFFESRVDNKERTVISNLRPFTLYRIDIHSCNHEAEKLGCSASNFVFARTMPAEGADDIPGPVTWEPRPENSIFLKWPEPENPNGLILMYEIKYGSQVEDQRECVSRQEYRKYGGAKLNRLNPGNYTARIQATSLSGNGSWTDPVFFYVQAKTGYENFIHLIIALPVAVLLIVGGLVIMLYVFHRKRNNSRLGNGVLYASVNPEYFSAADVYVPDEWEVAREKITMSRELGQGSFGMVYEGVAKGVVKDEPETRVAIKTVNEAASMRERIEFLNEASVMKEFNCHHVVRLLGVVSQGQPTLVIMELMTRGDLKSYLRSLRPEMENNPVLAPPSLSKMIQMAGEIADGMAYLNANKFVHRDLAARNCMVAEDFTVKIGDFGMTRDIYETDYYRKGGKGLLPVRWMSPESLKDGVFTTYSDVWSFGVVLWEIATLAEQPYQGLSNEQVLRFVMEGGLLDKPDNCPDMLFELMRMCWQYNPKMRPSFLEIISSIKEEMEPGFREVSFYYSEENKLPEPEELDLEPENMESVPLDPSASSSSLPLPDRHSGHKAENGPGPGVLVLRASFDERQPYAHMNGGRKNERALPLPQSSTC
CK2, sequence (P68400 whole entry): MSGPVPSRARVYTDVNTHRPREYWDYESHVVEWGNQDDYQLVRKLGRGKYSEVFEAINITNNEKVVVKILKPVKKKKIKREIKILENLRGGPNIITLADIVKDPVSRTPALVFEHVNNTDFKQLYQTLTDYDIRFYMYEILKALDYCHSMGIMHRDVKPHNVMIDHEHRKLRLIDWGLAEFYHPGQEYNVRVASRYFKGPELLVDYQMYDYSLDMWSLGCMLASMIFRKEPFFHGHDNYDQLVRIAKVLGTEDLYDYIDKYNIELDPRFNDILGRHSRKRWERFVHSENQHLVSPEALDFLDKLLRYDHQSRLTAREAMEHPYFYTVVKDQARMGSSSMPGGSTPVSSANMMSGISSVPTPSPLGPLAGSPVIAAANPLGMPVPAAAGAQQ
NEK6, sequence (Q9HC98 whole entry): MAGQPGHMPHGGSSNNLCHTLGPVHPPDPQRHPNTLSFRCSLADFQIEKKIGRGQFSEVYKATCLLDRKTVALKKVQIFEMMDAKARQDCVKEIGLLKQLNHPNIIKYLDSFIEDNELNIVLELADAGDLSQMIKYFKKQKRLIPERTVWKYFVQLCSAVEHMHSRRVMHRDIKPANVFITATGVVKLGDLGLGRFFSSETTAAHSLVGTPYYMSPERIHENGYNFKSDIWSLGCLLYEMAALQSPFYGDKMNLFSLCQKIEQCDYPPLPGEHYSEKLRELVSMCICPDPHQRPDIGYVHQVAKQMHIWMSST
ERK1, sequence (P27361 whole entry): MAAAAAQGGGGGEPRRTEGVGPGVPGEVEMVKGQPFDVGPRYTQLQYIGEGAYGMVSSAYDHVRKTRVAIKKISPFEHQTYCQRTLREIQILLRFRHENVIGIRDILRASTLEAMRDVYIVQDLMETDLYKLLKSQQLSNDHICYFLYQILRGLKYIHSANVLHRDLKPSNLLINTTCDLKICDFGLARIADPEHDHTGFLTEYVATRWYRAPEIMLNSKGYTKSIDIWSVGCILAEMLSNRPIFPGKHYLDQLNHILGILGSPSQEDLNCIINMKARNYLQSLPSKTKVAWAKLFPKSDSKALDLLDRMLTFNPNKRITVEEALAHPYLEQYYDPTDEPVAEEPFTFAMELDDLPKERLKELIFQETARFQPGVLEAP
CHK2, sequence (O96017 whole entry): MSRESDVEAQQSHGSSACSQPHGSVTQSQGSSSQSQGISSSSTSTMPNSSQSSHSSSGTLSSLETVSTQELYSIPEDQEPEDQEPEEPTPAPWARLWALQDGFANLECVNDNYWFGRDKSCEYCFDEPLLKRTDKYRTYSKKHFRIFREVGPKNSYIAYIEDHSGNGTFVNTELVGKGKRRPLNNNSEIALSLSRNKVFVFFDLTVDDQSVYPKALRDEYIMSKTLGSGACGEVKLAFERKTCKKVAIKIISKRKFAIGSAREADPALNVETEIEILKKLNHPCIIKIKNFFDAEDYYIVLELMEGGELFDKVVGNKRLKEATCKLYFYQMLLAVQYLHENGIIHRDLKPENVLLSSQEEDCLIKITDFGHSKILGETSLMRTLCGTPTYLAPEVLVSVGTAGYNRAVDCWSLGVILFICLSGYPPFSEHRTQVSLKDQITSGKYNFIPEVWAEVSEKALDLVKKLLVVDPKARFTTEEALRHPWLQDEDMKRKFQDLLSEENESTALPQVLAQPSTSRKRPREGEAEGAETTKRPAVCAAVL

With `CC(c1ccccc1)n1c(=O)[nH]c2ncc(-c3ccc(F)cc3)nc21` (stereo not drawn) [Compound 1], the remaining activity at 10 µM amounted to 89% in test [1]; 75% in [2]; 107% in test [3]; 97% in test [4]; 90% in test [5]; 113% in test [6]. Also, the remaining activity at 10 µM in test [9] worked out at 122%; in test [10], 108%; in test [11], 153%; in test [12], 100%. The EC50 in test [7] (Trypanosoma brucei) was 80 nM; in test [8] it was more than 50000 nM.
For the compound `O=c1[nH]c2ncc(-c3ccc(F)cc3)nc2n1CC1CC1` [Compound 10], the remaining activity at 10 µM came to 86% in test [1]; 75% in [2]; 105% in test [3]; 97% in test [4]; 99% in test [5]; 92% in test [6]. For the same compound, the remaining activity at 10 µM in test [9] amounted to 85%; in test [10], 91%; in test [11], 112%; in test [12] it was 90%. Besides, the EC50 was 300 nM in test [7] (Trypanosoma brucei) and more than 50000 nM in [8].
For the compound `O=c1[nH]c2ncc(-c3ccc(F)cc3)nc2n1C1CCCCC1` [Compound 12, 1-Cyclohexyl-6-(4-fluorophenyl)-1H-imidazo[4,5-b]pyrazin-2(3H)-one], the remaining activity at 10 µM in test [1] is 94%; in test [2], 98%; in test [3], 111%; in [4], 96%; in test [5] it was 105%; in [6], 110%. The remaining activity at 10 µM in test [9] stood at 100%; in test [10], 76%; in [11], 115%; in [12], 96%. In addition, the EC50 in [7] (Trypanosoma brucei) is 30 nM; in [8] it was more than 50000 nM.
Regarding `C[C@H](c1ccccc1)n1c(=O)[nH]c2ncc(-c3ccccc3)nc21` [Compound 14, (R)-6-Phenyl-1-(1-phenylethyl)-1H-imidazo[4,5-b]pyrazin-2(3H)-one], the remaining activity at 10 µM in [1] amounted to 80%; in [2], 71%; in test [3] it was 105%; in [4], 93%; in [5], 89%; in test [6], 102%. For the same compound, the remaining activity at 10 µM is 112% in [9], 77% in test [10], 105% in test [11] and 94% in test [12]. Further, the concentration for a half-maximal effect (EC50) in test [7] (Trypanosoma brucei) was 100 nM; in test [8] it was 26000 nM.
`O=c1[nH]c2ncc(-c3ccccc3CO)nc2n1C1CCCCC1` [Compound 28]: the EC50 in test [7] (Trypanosoma brucei) is 50 nM; in test [7], 46 nM; in test [8], more than 50000 nM.
